From patent US7491722B2, “Pyridazin-3(2H)-one derivatives” (Laboratorios Almirall S.A., priority 2002, dated 2009)

System: PDE4
Test: PDE4 Assay Procedure ([3H]-cAMP SPA)
Type: biochemical
Protocol: Compounds to be tested were resuspended in DMSO at a stock concentration of 1 mM. The compounds were tested at different concentrations varying from 10 μM to 10 pM to calculate an IC50. These dilutions were done in 96-well plates. In some cases, plates containing diluted compounds were frozen before being assayed. In these cases, the plates were thawed at room temperature and stirred for 15 minutes.
Ten microliters of the diluted compounds were poured into a “low binding” assay plate. Eighty microliters of reaction mixture containing 50 mM Tris pH 7.5, 8.3 mM MgCl2, 1.7 mM EGTA, and 15 nM [3H]-cAMP were added to each well. The reaction was initiated by adding ten microliters of a solution containing PDE4. The plate was then incubated under stirring for 1 hour at room temperature. After incubation the reaction was stopped with 50 microlitres of SPA beads, and the reaction was allowed to incubate for another 20 minutes at room temperature before measuring radioactivity using standard instrumentation.
The reaction mixture was prepared by adding 90 ml of H2O to 10 ml of 10× assay buffer (500 mM Tris pH 7.5, 8.3 mM MgCl2, 17 mM EGTA), and 40 microlitres 1 μCi/μL [3H]-cAMP. SPA beads solution was prepared by adding 500 mg to 28 ml H2O for a final concentration of 20 mg/ml beads and 18 mM zinc sulphate.

Row | IC50 [nM] | SMILES
1 | 2.3 | CCn1nc(-c2cccnc2)c(C(C)=O)c(Nc2cccc(F)c2)c1=O [Example 1, 5-Acetyl-2-ethyl-4-[(3-fluorophenyl)amino]-6-pyridin-3-ylpyridazin-3(2H)-one]
2 | 4.5 | CCn1nc(-c2ccncc2)c(C(C)=O)c(Nc2cccc(Cl)c2)c1=O [Example 31, 5-Acetyl-4-[(3-chlorophenyl)amino]-2-ethyl-6-pyridin-4-ylpyridazin-3(2H)-one]
3 | 0.59 | CCn1nc(-c2ccncc2)c(C(C)=O)c(Nc2cccc3ccccc23)c1=O [Example 32, 5-Acetyl-2-ethyl-4-(1-naphthylamino)-6-pyridin-4-ylpyridazin-3(2H)-one]
4 | 10 | CCn1nc(-c2ccccc2)c(C(C)=O)c(Nc2cccc3cccnc23)c1=O [Example 67, 5-Acetyl-2-ethyl-6-phenyl(quinolin-8-ylamino)pyridazin-3(2H)-one]
5 | 2.6 | CCn1nc(-c2ccccc2)c(C(C)=O)c(Nc2cccc3cnccc23)c1=O [Example 84, 5-Acetyl-2-ethyl-4-(isoquinolin-5-ylamino)-6-phenylpyridazin-3(2H)-one]
6 | 9.4 | CC(=O)c1c(-c2cccc(F)c2)nn(C(C)C)c(=O)c1Nc1cccnc1 [Example 91]
7 | 11 | CC(=O)c1c(-c2cccc(F)c2)nn(CC2CC2)c(=O)c1Nc1cccnc1 [Example 92, 5-Acetyl-2-cyclopropylmethyl-6-(3-fluorophenyl)-4-(pyridin-3-ylamino)-pyridazin-3(2H)-one]
8 | 8.3 | CCn1nc(-c2ccc(F)cc2)c(C(C)=O)c(Nc2cccnc2)c1=O [Example 93, 5-Acetyl-6-(4-fluorophenyl)-2-ethyl 4-(pyridin-3-ylamino)-pyridazin-3(2H)-one]

Second part, the compound before the results:

Row | SMILES | IC50 [nM]
9 | CCn1nc(-c2cccnc2)c(C(C)=O)c(Nc2cccc3ccccc23)c1=O [Example 4, 5-Acetyl-2-ethyl-4-(1-naphthylamino)-6-pyridin-3-ylpyridazin-3(2H)-one] | 6.8
10 | CCn1nc(-c2ccncc2)c(C(C)=O)c(Nc2ccccc2C)c1=O [Example 33, 5-Acetyl-2-ethyl-4-[(2-methylphenyl)amino]-6-pyridin-4-ylpyridazin-3(2H)-one] | 0.11
11 | CCn1nc(-c2ccncc2)c(C(C)=O)c(Nc2ccc(C(=O)O)cc2)c1=O [Example 41, 4-[(5-acetyl-2-ethyl-3-oxo-6-pyridin-4-yl-2,3-dihydropyridazin-4-yl)amino]benzoic acid] | 16
12 | CCn1nc(-c2cccs2)c(C(C)=O)c(Nc2cccc(Cl)c2)c1=O [Example 52, 5-Acetyl-4-[(3-chlorophenyl)amino]-2-ethyl-6-thien-2-ylpyridazin-3(2H)-one] | 5.2
13 | CCn1nc(-c2ccccc2)c(C(C)=O)c(Nc2cccnc2)c1=O [Example 63, 5-Acetyl-2-ethyl-6-phenyl-4-(pyridin-3-ylamino)pyridazin-3(2H)-one] | 24
14 | CCn1nc(-c2ccccc2)c(C(C)=O)c(Nc2cccc3[nH]ccc23)c1=O [Example 69, 5-Acetyl-2-ethyl-4-(1H-indol-4-ylamino)-6-phenylpyridazin-3(2H)-one] | 2
15 | CCn1nc(-c2ccccc2)c(C(C)=O)c(Nc2cccc3ncccc23)c1=O [Example 82, 5-Acetyl-2-ethyl-6-phenyl-4-(quinolin-5-ylamino)pyridazin-3(2H)-one] | 0.3

System: not given
Test: not given

Row | melting point [°C] | SMILES
16 | 245 to 246.1 | CCn1nc(-c2cccc(C)c2)c(C(C)=O)c(Nc2cccc3ncccc23)c1=O [Example 195, 5-Acetyl-2-ethyl-6-(3-methylphenyl)-4-(quinolin-5-ylamino)pyridazin-3(2H)-one]
